Data reported in BindingDB's records for doi:10.1021/jm00174a017 (Alter, 1991).

Experiment: Tested for inhibition of [3H]PAF binding to rabbit Platelet activating factor receptor
CCOC(=O)C1C(C)=NC(C)=C(C(=O)OCCSCC)C1C (stereo not given) showed a Ki of 1 µM.
Work on COC(=O)C1C(C)=NC(C)=C(C(=O)OCCSc2ccccc2)C1C (stereo not given) yielded a Ki of 0.015 µM.
With COCCOC(=O)C1C(C)=NC(C)=C(C(=O)OCCSC)C1C (stereo not given) the Ki was 4.41 µM.
Molecule CCOC(=O)C1C(C)=NC(C)=C(C(=O)OCCSc2ccccc2)C1C (stereo not given) has a Ki of 0.069 µM.
In the case of CCOC(=O)C1C(C)=NC(C)=C(C(=O)OCCSC)C1C (stereo not given), the Ki is reported as 1.04 µM.
CCSCCOC(=O)C1=C(C)N=C(C)C(C(=O)OC)C1C (stereo not given) gave a Ki of 0.505 µM.
In the case of CC1=NC(C)=C(C(=O)OCCSc2ccccc2)C(C)C1C(=O)OCC1CCCO1 (stereo not given), the Ki is reported as 2.09 µM.
Work on CCOC(=O)C1C(C)=NC(C)=C(C(=O)OCCSC)C1CC (stereo not given) yielded a Ki of 1.01 µM.
Molecule CC1=NC(C)=C(C(=O)OCCSc2ccccc2)C(C)C1C(=O)OC(C)C (stereo not given) has a Ki of 0.913 µM.
In the case of COC(=O)C1C(C)=NC(C)=C(C(=O)OCCSC)C1C (stereo not given), the Ki is reported as 0.603 µM.
